From PubChem BioAssay AID1963845 (Molecular Pharmacology Branch, DTP, NCI, 2024)

Tested on: 429239-143-T-J1-PDC complex spheroid viability
Test: Anticancer human tumor 429239-143-T-J1-PDC patient-derived small cell lung carcinoma cell line growth inhibition [POLQ]
Settings: for IC50: curve of first compound; for viability, T/C: stronger effect = lower value
Experimental: Multicellular complex tumor spheroid response to Polymerase (POL) inhibitors (novobiocin, ART-558, RP6685) in combination with a variety of drugs and investigational agents in selected tumor cell lines
The POL inhibitors (novobiocin, ART-558, and RP6685) were evaluated both individually and in combination with standard of care and investigational anticancer small molecules within a complex spheroid model of solid tumors. . Complex spheroids include a stromal component modeled by human endothelial cells (HUVEC) and fibroblasts modeled by human mesenchymal stem cells (MSCs). The concentration ranges selected for each drug and investigational agent were based upon clinically achievable concentrations if the clinical Cmax of the agent was known.
Compounds. The drugs and investigational agents: novobiocin (NSC847541), ART-558 (NSC835418), RP-6685 (NSC848927), peposertib (NSC802822), ceralasertib (NSC780249), elimusertib (NSC800525), camonsertib (NSC841442), AZD-1390 (NSC803789), olaparib (NSC753686), talazoparib (NSC767125), rucaparib (NSC756644), sotorasib (NSC818433), MRTX-1133 (NSC836407), SN-38 (NSC673596), topotecan (NSC609699), epotoside (NSC141540), doxorubicin (NSC123127), gemcitabine (NSC613327), 5-fluorouracil (NSC19893), paclitaxel (NSC125973), vemurafenib (NSC761431), MSA-2 (NSC828583), SN-011 (NSC837082), adavosertib (NSC754352), prexasertib (NSC758257), carboplatin (NSC241240) and oxaliplatin (NSC266046), were obtained from the National Cancer Institute (NCI) Developmental Therapeutics Program Chemical Repository (21). The FDA-approved anticancer drug set is available from the Developmental Therapeutics Program at https://dtp.cancer.gov/organization/dscb/obtaining/. […] The stock solutions were prepared in dimethyl sulfoxide (DMSO, Sigma-Aldrich, St. Louis, MO, cat. D2650), except for the platinum compounds which were prepared in saline (Quality Biological, Gaithersburg, MD, cat. 114-055-101), at 800-fold the tested concentration and stored at -70 degrees C prior to their use. All drugs and investigational agents were tested over a range starting from a high concentration at or near the clinical Cmax and decreasing in half-log increments. If the clinical Cmax for an agent had not been determined, the highest concentration tested was 10 microM, except for SN-38, which was tested at a high concentration of 1 microM.
Cell Culture. All cells were maintained in an incubator at 37 degrees C and 5% CO2 with 95% humidity. The PDC lines were cultured according to standard operating procedures established by the NCI PDMR (https://pdmr.cancer.gov). Table 3 of the manuscript, lists the cell lines along with the number of the three cell types plated to form the mct-spheroids and media for tumor cell growth. After thawing, all PDC lines, except 997537-175-T-J1-PDC and 415267-285-R-J2-PDC, were cultured in Matrigel-coated flasks prepared with a working solution of 1X Ham's F-12 nutrient mix, without supplementation (Thermo Fisher Scientific, cat. 11765054), 100 U/mL penicillin-streptomycin (Thermo Fisher Scientific, cat. 15140122), and 2.5% Matrigel (Corning Inc., Corning, NY, cat. 354248) for the first three passages. The two PDC lines 997537-175-T-J1-PDC and 415267-285-R-J2-PDC were cultured on uncoated flasks. The 857933-349-R-J2-PDC line was cultured in 6C/Colon 1B media containing advanced DMEM/F-12 (Thermo Fisher Scientific, cat. 12634028), 10 mM HEPES (Thermo Fisher Scientific, cat. 15630080), 1X GlutaMAX supplement (Thermo Fisher Scientific, cat. 35050061), 0.1 mg/mL primocin (InvivoGen, San Diego, CA, cat. ant-pm-2), 10% defined fetal bovine serum, heat inactivated (HyClone Laboratories Inc., Logan, UT, cat. SH30070.03HI), 50% L-WRN conditioned media (ATCC, cat. CRL-3276), 1.25 mM N-Acetyl-L-cysteine (Sigma-Aldrich, cat. A9165), 10 mM nicotinamide (Sigma-Aldrich, cat. N0636), 1X B-27 supplement (Thermo Fisher Scientific, cat. 17504044), 1X N-2 supplement (Thermo Fisher Scientific, cat. […]

[1] = second compound 0.0316 µM, first compound 0.0316 µM
[2] = second compound 0.0316 µM, first compound 0.1 µM
[3] = second compound 0.0316 µM, first compound 0.316 µM
[4] = second compound 0.0316 µM, first compound 1 µM
[5] = second compound 0.0316 µM, first compound 3.16 µM
[6] = second compound 0.0316 µM, first compound 10 µM
[7] = second compound 0.1 µM, first compound 0.0316 µM
[8] = second compound 0.1 µM, first compound 0.1 µM
[9] = second compound 0.1 µM, first compound 0.316 µM
[10] = second compound 0.1 µM, first compound 1 µM
[11] = second compound 0.1 µM, first compound 3.16 µM
[12] = second compound 0.1 µM, first compound 10 µM
[13] = second compound 0.316 µM, first compound 0.0316 µM
[14] = second compound 0.316 µM, first compound 0.1 µM
[15] = second compound 0.316 µM, first compound 0.316 µM
[16] = second compound 0.316 µM, first compound 1 µM
[17] = second compound 0.316 µM, first compound 3.16 µM
[18] = second compound 0.316 µM, first compound 10 µM
[19] = second compound 1 µM, first compound 0.0316 µM
[20] = second compound 1 µM, first compound 0.1 µM
[21] = second compound 1 µM, first compound 0.316 µM
[22] = second compound 1 µM, first compound 1 µM
[23] = second compound 1 µM, first compound 3.16 µM
[24] = second compound 1 µM, first compound 10 µM
[25] = second compound 3.16 µM, first compound 0.0316 µM
[26] = second compound 3.16 µM, first compound 0.1 µM
[27] = second compound 3.16 µM, first compound 0.316 µM
[28] = second compound 3.16 µM, first compound 1 µM
[29] = second compound 3.16 µM, first compound 3.16 µM
[30] = second compound 3.16 µM, first compound 10 µM
[31] = second compound 10 µM, first compound 0.0316 µM
[32] = second compound 10 µM, first compound 0.1 µM
[33] = second compound 10 µM, first compound 0.316 µM
[34] = second compound 10 µM, first compound 1 µM
[35] = second compound 10 µM, first compound 3.16 µM
[36] = second compound 10 µM, first compound 10 µM
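Further: luminescence signal used as surrogate measure of viable cells; spheroids exposed to compounds for seven days before readout.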
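Wherever viability, T/C is given: 100% = DMSO vehicle control viability as luminescence relative to vehicle.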

Structure (SMILES): C=CC(=O)N1CCN(c2nc(=O)n(-c3c(C)ccnc3C(C)C)c3nc(-c4c(O)cccc4F)c(F)cc23)C(C)C1 (stereo unspecified) + COC1C(OC(N)=O)C(O)C(Oc2ccc3c(O)c(NC(=O)c4ccc(O)c(CC=C(C)C)c4)c(=O)oc3c2C)OC1(C)C
- IC50 (second compound 0.0316 µM): > 10 µM
- IC50 (second compound 0.1 µM): > 10 µM
- IC50 (second compound 0.316 µM): > 10 µM
- IC50 (second compound 1 µM): > 10 µM
- IC50 (second compound 3.16 µM): > 10 µM
- IC50 (second compound 10 µM): > 10 µM
- viability, T/C [1]: 107%
- viability, T/C [2]: 89.5%
- viability, T/C [3]: 94%
- viability, T/C [4]: 94.6%
- viability, T/C [5]: 107%
- viability, T/C [6]: 112%
- viability, T/C [7]: 104%
- viability, T/C [8]: 94.3%
- viability, T/C [9]: 93.6%
- viability, T/C [10]: 104%
- viability, T/C [11]: 87.9%
- viability, T/C [12]: 97.7%
- viability, T/C [13]: 96.7%
- viability, T/C [14]: 90.8%
- viability, T/C [15]: 91.7%
- viability, T/C [16]: 91.7%
- viability, T/C [17]: 103%
- viability, T/C [18]: 101%
- viability, T/C [19]: 98.4%
- viability, T/C [20]: 94.6%
- viability, T/C [21]: 99.8%
- viability, T/C [22]: 96.6%
- viability, T/C [23]: 103%
- viability, T/C [24]: 101%
- viability, T/C [25]: 94.9%
- viability, T/C [26]: 107%
- viability, T/C [27]: 95.3%
- viability, T/C [28]: 95.3%
- viability, T/C [29]: 98.7%
- viability, T/C [30]: 103%
- viability, T/C [31]: 79.5%
- viability, T/C [32]: 84.8%
- viability, T/C [33]: 91.5%
- viability, T/C [34]: 87.7%
- viability, T/C [35]: 104%
- viability, T/C [36]: 103%

Structure (SMILES): CCc1cc2c(N3CCc4c(cc(Cn5ccnc5)cc4-c4cn(C)nc4C(F)(F)F)C3=O)cc(C)nc2c(OC)n1 + COC1C(OC(N)=O)C(O)C(Oc2ccc3c(O)c(NC(=O)c4ccc(O)c(CC=C(C)C)c4)c(=O)oc3c2C)OC1(C)C
- IC50 (second compound 0.0316 µM): 1.47 µM
- IC50 (second compound 0.1 µM): 2.24 µM
- IC50 (second compound 0.316 µM): 1.39 µM
- IC50 (second compound 1 µM): 1.99 µM
- IC50 (second compound 3.16 µM): 1.41 µM
- IC50 (second compound 10 µM): 0.715 µM
- viability, T/C [1]: 85.5%
- viability, T/C [2]: 85.1%
- viability, T/C [3]: 70.6%
- viability, T/C [4]: 50%
- viability, T/C [5]: 46.1%
- viability, T/C [6]: 29%
- viability, T/C [7]: 94.5%
- viability, T/C [8]: 88.7%
- viability, T/C [9]: 70%
- viability, T/C [10]: 64.3%
- viability, T/C [11]: 43.4%
- viability, T/C [12]: 33.4%
- viability, T/C [13]: 95.2%
- viability, T/C [14]: 95%
- viability, T/C [15]: 65.1%
- viability, T/C [16]: 57.8%
- viability, T/C [17]: 41.5%
- viability, T/C [18]: 40.4%
- viability, T/C [19]: 90.2%
- viability, T/C [20]: 76%
- viability, T/C [21]: 65.8%
- viability, T/C [22]: 69.1%
- viability, T/C [23]: 37.8%
- viability, T/C [24]: 30.5%
- viability, T/C [25]: 83.8%
- viability, T/C [26]: 83.3%
- viability, T/C [27]: 81.7%
- viability, T/C [28]: 52.6%
- viability, T/C [29]: 44.2%
- viability, T/C [30]: 31.1%
- viability, T/C [31]: 88.2%
- viability, T/C [32]: 82.8%
- viability, T/C [33]: 61.6%
- viability, T/C [34]: 44%
- viability, T/C [35]: 46.3%
- viability, T/C [36]: 34.1%

Structure (SMILES): COc1cc2cc(C(=O)CCC(=O)O)sc2cc1OC + COC1C(OC(N)=O)C(O)C(Oc2ccc3c(O)c(NC(=O)c4ccc(O)c(CC=C(C)C)c4)c(=O)oc3c2C)OC1(C)C
- IC50 (second compound 0.0316 µM): > 10 µM
- IC50 (second compound 0.1 µM): > 10 µM
- IC50 (second compound 0.316 µM): > 10 µM
- IC50 (second compound 1 µM): > 10 µM
- IC50 (second compound 3.16 µM): > 10 µM
- IC50 (second compound 10 µM): > 10 µM
- viability, T/C [1]: 113%
- viability, T/C [2]: 95.9%
- viability, T/C [3]: 112%
- viability, T/C [4]: 105%
- viability, T/C [5]: 92.1%
- viability, T/C [6]: 92.4%
- viability, T/C [7]: 116%
- viability, T/C [8]: 104%
- viability, T/C [9]: 93.7%
- viability, T/C [10]: 100%
- viability, T/C [11]: 91.2%
- viability, T/C [12]: 92.6%
- viability, T/C [13]: 103%
- viability, T/C [14]: 99.3%
- viability, T/C [15]: 92.6%
- viability, T/C [16]: 107%
- viability, T/C [17]: 95.1%
- viability, T/C [18]: 90.2%
- viability, T/C [19]: 96.1%
- viability, T/C [20]: 91.1%
- viability, T/C [21]: 108%
- viability, T/C [22]: 90.9%
- viability, T/C [23]: 90.6%
- viability, T/C [24]: 102%
- viability, T/C [25]: 94.7%
- viability, T/C [26]: 112%
- viability, T/C [27]: 103%
- viability, T/C [28]: 89.4%
- viability, T/C [29]: 96%
- viability, T/C [30]: 101%
- viability, T/C [31]: 95.9%
- viability, T/C [32]: 91.7%
- viability, T/C [33]: 119%
- viability, T/C [34]: 96.6%
- viability, T/C [35]: 94.3%
- viability, T/C [36]: 95.7%
